Numbered stars: 1 amine (or outer) side, 2 acyl side, 3 side chain; on linkers, the order of the positions; unused ones are H or OH. Bridge positions count the residues as written; N and C are the ends. Square brackets hold non-standard residues; d marks the D form. Peptide text beside a SMILES is read from it. * marks the point of attachment. hPhe(3,5-F2-4-CF3) = N[C@@H](CCc1cc(F)c(C(F)(F)F)c(F)c1)C(=O)O; hPhe(3-Cl-4-CF3) = N[C@@H](CCc1ccc(C(F)(F)F)c(Cl)c1)C(=O)O; hPhe(3-F,4-CF3) = N[C@@H](CCc1ccc(C(F)(F)F)c(F)c1)C(=O)O; hPhe(3-OMe-4-CF3) = COc1cc(CC[C@H](N)C(=O)O)ccc1C(F)(F)F; NMePhe(4-CF3) = CN[C@@H](Cc1ccc(C(F)(F)F)cc1)C(=O)O; NMeAbu(4,4,4-F3) = CN[C@@H](CC(F)(F)F)C(=O)O; NMedβ3hAla = C[C@H](CC(=O)[*:2])N(C)[*:1]; NMeAla(cPent) = CN[C@@H](CC1CCCC1)C(=O)O; Oic = O=C(O)[C@@H]1C[C@@H]2CCCC[C@@H]2N1; X72 = O=C([C@@H]1Cc2ccccc2N1[*:1])[*:2]; NMeGly(cPent) = CN[C@H](C(=O)O)C1CCCC1; NMeCha = CN[C@@H](CC1CCCCC1)C(=O)O; NMeChg = CN[C@H](C(=O)O)C1CCCCC1; N(CH2CH2)2CF2 = FC1(F)CCN(*)CC1; NMeD = CN[C@@H](CC(=O)O)C(=O)O; NMeL = CN[C@@H](CC(C)C)C(=O)O; NMeV = CN[C@H](C(=O)O)C(C)C; NMeA = CN[C@@H](C)C(=O)O; Piperidide = C1CCN(*)CC1; Pyrrolidide = C1CCN(*)C1; Ac5c = NC1(C(=O)O)CCCC1; Aze = O=C(O)[C@@H]1CCN1; Sar = CNCC(=O)O Where only a bound is given, the exact number is not on record here.

IC50 data for seven compounds are collected here from US20240148821A1, “PHARMACEUTICAL USE OF CYCLIC PEPTIDE COMPOUND” (CHUGAI SEIYAKU KABUSHIKI KAISHA, priority 2021, published 2024).

The experiment has as its system Human pancreatic cancer cell line AsPC-1 (G12D mutation Kras). The experiment in a line: AsPC-1 cell growth inhibition (AsPC-1 CGI). The experiment is classed as cell-based. The following applies: read-out: AsPC-1 cell growth inhibition, 50% growth inhibitory concentration (IC50 value); 96 hours, CellTiter-Glo, values classified in ranges. (Cellular ATP, detected with luciferase, serves as a proxy for viable cell number.)
Description: Test compounds were serially dilated with dimethyl sulfoxide, and 200 nL was then dispensed to a U-bottom 96-well plate using Labcyte Echo. […] The cell suspension was dispensed to a. plate containing a test compound at 100 μL per well and incubated at 37° C. in a 5% carbon dioxide gas incubator. 96 hours later, 80 μL of CellTiter-Glo (Promega) was added to each well and fluorescence was measured.
With `CC[C@H](C)[C@@H]1NC(=O)[C@H](CC(C)C)N(C)C(=O)C[C@@H](C(=O)N2CCCCC2)N(C)C(=O)[C@H](C2CCCCC2)N(C)C(=O)C2(CCCC2)NC(=O)[C@@H]2C[C@@H]3CCCC[C@@H]3N2C(=O)[C@H](CCc2ccc(C(F)(F)F)c(Cl)c2)NC(=O)CN(C)C(=O)[C@H](CC2CCCCC2)N(C)C(=O)CN(C)C(=O)CN(C)C1=O` [Compound 297] ([NMeL]I[Sar][Sar][NMeCha][Sar][hPhe(3-Cl-4-CF3)][Oic][Ac5c][NMeChg][NMeD]-Piperidide; lactam N-11), the IC50 was over 0.5 µM.

In the case of `CC[C@H](C)[C@@H]1NC(=O)[C@H](CC(C)C)N(C)C(=O)C[C@@H](C(=O)N2CCCCC2)N(C)C(=O)[C@H](C2CCCC2)N(C)C(=O)C2(CCCC2)NC(=O)[C@@H]2CCCN2C(=O)[C@H](CCc2ccc(C(F)(F)F)c(OC)c2)NC(=O)CN(C)C(=O)[C@H](CC2CCCCC2)N(C)C(=O)[C@@H]2CCN2C(=O)[C@H](C)N(C)C1=O` [Compound 2080] ([NMeL]I[NMeA][Aze][NMeCha][Sar][hPhe(3-OMe-4-CF3)]P[Ac5c][NMeGly(cPent)][NMeD]-Piperidide; lactam N-11 (inferred); C-terminus assumed), the IC50 was at most 0.02 µM. `CC[C@H](C)[C@@H]1NC(=O)[C@H](C)N(C)C(=O)C[C@@H](C(=O)N2CCCCC2)N(C)C(=O)[C@H](C(C)C)N(C)C(=O)C2(CCCC2)NC(=O)[C@@H]2CCCN2C(=O)[C@H](CCc2ccc(C(F)(F)F)c(F)c2)NC(=O)CN(C)C(=O)[C@H](CC2CCCCC2)N(C)C(=O)CN(C)C(=O)CN(C)C1=O` [Compound 266] ([NMeA]I[Sar][Sar][NMeCha][Sar][hPhe(3-F,4-CF3)]P[Ac5c][NMeV][NMeD]-Piperidide; lactam N-11): the IC50 was over 0.5 µM. Consider `CC[C@H](C)[C@@H]1NC(=O)[C@H](CC(C)C)N(C)C(=O)C[C@@H](C(=O)N2CCCCC2)N(C)C(=O)[C@H](C2CCCCC2)N(C)C(=O)C2(CCCC2)NC(=O)[C@@H]2Cc3ccccc3N2C(=O)[C@H](CCc2ccc(C(F)(F)F)c(Cl)c2)NC(=O)CN(C)C(=O)[C@H](CC2CCCCC2)N(C)C(=O)CN(C)C(=O)CN(C)C1=O` [Compound 514] ([NMeL]I[Sar][Sar][NMeCha][Sar][hPhe(3-Cl-4-CF3)][X72][Ac5c][NMeChg][NMeD]-Piperidide; lactam N-11), for which the IC50 is over 0.5 µM.

Regarding `CC[C@H](C)[C@@H]1NC(=O)[C@H](CC(C)C)N(C)C(=O)C[C@@H](C(=O)N2CCCCC2)N(C)C(=O)[C@H](C(C)C)N(C)C(=O)[C@H](C)NC(=O)[C@H](CC(=O)N2CCC(F)(F)CC2)N(C)C(=O)[C@H](CCc2ccc(C(F)(F)F)c(Cl)c2)NC(=O)CN(C)C(=O)[C@H](CC2CCCCC2)N(C)C(=O)CN(C)C(=O)CN(C)C1=O` [Compound 444] ([NMeL]I[Sar][Sar][NMeCha][Sar][hPhe(3-Cl-4-CF3)][NMeD](N(CH2CH2)2CF2)A[NMeV][NMeD]-Piperidide; lactam N-11), the IC50 was over 0.5 µM. Take `CC[C@H](C)[C@@H]1NC(=O)[C@H](CC(F)(F)F)N(C)C(=O)C[C@@H](C(=O)N2CCCC2)N(C)C(=O)[C@H](C2CCCCC2)N(C)C(=O)C2(CCCC2)NC(=O)[C@@H]2CCCN2C(=O)[C@H](CCc2cc(F)c(C(F)(F)F)c(F)c2)NC(=O)CN(C)C(=O)[C@H](Cc2ccc(C(F)(F)F)cc2)N(C)C(=O)CN(C)C(=O)CN(C)C1=O` [Compound 1244] ([NMeAbu(4,4,4-F3)]I[Sar][Sar][NMePhe(4-CF3)][Sar][hPhe(3,5-F2-4-CF3)]P[Ac5c][NMeChg][NMeD]-Pyrrolidide; lactam N-11): the IC50 is at most 0.02 µM. Regarding `CC[C@H](C)[C@@H]1NC(=O)[C@H](CC(C)C)N(C)C(=O)C[C@@H](C)N(C)C(=O)[C@H](CC2CCCC2)N(C)C(=O)C2(CCCC2)NC(=O)[C@@H]2CCCN2C(=O)[C@H](CCc2ccc(C(F)(F)F)c(Cl)c2)NC(=O)CN(C)C(=O)[C@H](CC2CCCCC2)N(C)C(=O)CN(C)C(=O)CN(C)C1=O` [Compound 991] (cyclo([Ac5c][NMeAla(cPent)][NMedβ3hAla][NMeL]I[Sar][Sar][NMeCha][Sar][hPhe(3-Cl-4-CF3)]P)), the IC50 was over 0.5 µM.
